Tests used:
[1] = human, in vivo
Description: There were two studies in the project. Study 1 was under the fasting state, and study 2 was under the fed state. […] The studies aimed to compare the PK profiles and safeties of the T and R drugs. The study protocols were approved by the Wuxi People’s Hospital Ethics Committee (Approval No. 2018LLPJ-I-14-03) and were conducted at Wuxi People’s Hospital Affiliated to Nanjing Medical University, Jiangsu Province, China. The studies were performed in accordance with the principles of the World Medical Association (WMA) Declaration of Helsinki. All volunteers signed written informed consents before enrollment.
Subjects received a single oral dose of the T or R drug in each period in a randomized way under either fasting or fed conditions, with a wash-out of 7 days. For the fed study, subjects finished the high-fat diet (containing protein 16.52%, fat 56.85%, carbohydrate 26.63%) in 30 min and were given the drug with 240 ml of a 20% glucose solution in water 30 min after they started eating the diet. For the fasting study, the drug was administered with 240 ml of a 20% glucose solution in water under the fasting state. An overnight fast for at least 10 h before administration was required. Subjects were not allowed to drink water 1 h before and after dosing, and lunch could be served only 4 h after dosing for both studies.
Venous blood samples (4 ml) were collected from an intravenous indwelling catheter before dosing and at 0.5, 1, 1.5, 2, 2.5, 3, 3.5, 4, 4.5, 5, 6, 7, 8, 9, 10, 11, 12, 14, 24, 32, 48, and 72 h after dosing for both fed and fasting studies. Blood samples were drawn into BD Vacutainers® with ethylene diamine tetra acetic acid (EDTA) anticoagulant. Plasma was separated by centrifugation at 2150 ± 5 g for 10 min at 2°C–8°C and stored at −20°C within 2 h after sampling and transferred to −80°C within 24 h.
Study data were summarized by descriptive statistics. The statistical analyses were performed using SAS® version 9.4. For the comparisons, Cmax, AUC0–t, and AUC0–∞ were analyzed using linear mixed models after logarithmic transformation. […] was achieved if the 90% CI of each parameter geometric means ratio (GMR) test/reference fell between 0.8–1.25. The statistical analysis included treatment, period, sequence, and subject-within-sequence as fixed effects. Tmax was compared between treatments using the non-parametric Wilcoxon signed-rank test.

[2] = design: method as in Schnaars et al., 2023; conditions: metformin 1000 mg, IR; fed condition; ref Schnaars et al., 2023; cited from earlier work
[3] = Published BE studies of sitagliptin (100 mg) and sitagliptin–metformin (50/1000 mg) IR fixed-dose combination; type: in vivo; conditions: sitagliptin (100 mg) alone; fasting condition; published values (ref Schnaars et al., 2023) compared with own data
[4] = sitagliptin, ref FDA, 2005, 2006, 2012; cited from earlier work

Row | SMILES | Intra-individual variation of AUC0-t [1] | Intra-individual variation of AUC0-∞ [1] | Intra-individual variation of Cmax [1] | Cmax [2] | median Tmax [2] | Cmax, AUC0−t, AUC0−∞ higher than the data of this study [3] | t1/2 [4]
1 | CN(C)C(=N)N=C(N)N [Metformin, metformin] | 13.01% | 13.31% | 11.61% | 1592.89 ng/L | 3.5 h | – | –
2 | N[C@@H](CC(=O)N1CCn2c(nnc2C(F)(F)F)C1)Cc1cc(F)c(F)cc1F [Sitagliptin, sitagliptin] | 6.05% | 6.04% | 19.42% | – | – | 14–32% | around 12 h

Source: publication PMC10073488 (Frontiers in Pharmacology, 2023)
